# Data: patent publication US20260306476A1, “ANTIBACTERIAL COMPOUND PBT2” (priority 2022, published 2026)
# Read-outs that look alike come from different tables or passages of the source.
# Legend:
# [1] = tested on: MDR Neisseria gonorrhoeae; assay: RNA-seq expression profile analysis after PBT2 treatment; assay type: cell-based; conditions: for fold change in gene expression (up- or down-regulated) at 0.156 µg/mL / fold induction at 0.156 µg/mL: Neisseria gonorrhoeae
# Procedure: Expression profile analysis using RNA-seq was performed to investigate the mode of action of PBT2 in killing Neisseria gonorrhoeae.
# [2] = tested on: Neisseria meningitidis 8013 (C); assay: MIC of PBT2 (broth and agar)
# [3] = tested on: Neisseria meningitidis PMC2 (Z/29E); assay: MIC of PBT2 (broth and agar)
# [4] = tested on: Helicobacter pylori CH426; assay: MIC of PBT2 alone (agar); assay type: cell-based
# [5] = tested on: Neisseria meningitidis PMC10 (Y); assay: MIC of PBT2 (broth and agar)
# [6] = tested on: Helicobacter pylori 26695; assay: MIC of PBT2 alone (agar); assay type: cell-based
# Procedure: The MIC of PBT2 against four Helicobacter pylori 26695 strains was determined. The strains tested were sensitive to PBT2.
# [7] = tested on: vancomycin-resistant Enterococcus (VRE); conditions: in the absence of an antibiotic; cited from earlier work
# [8] = sub-MIC PBT2 0.156 mg/L, cut-off >=2-fold, P<0.05
# [9] = up-regulated gene WHOZ_00323 (ABC transporter periplasmic binding protein, iron related)
# [10] = up-regulated gene WHOZ_00324 (iron(III) ABC transporter permease)
smiles,measurement,setting,value
"CN(C)Cc1ccc2c(Cl)cc(Cl)c(O)c2n1 [PBT2, 5,7-dichloro-2-[(dimethylamino)methyl]quinolin-8-ol]",fold change in gene expression (up- or down-regulated) at 0.156 µg/mL,"[1]; read-out: Fold Change, down-regulated gene WHOZ_00293 (Periplasmic protein)",3.56
same,fold change in gene expression (up- or down-regulated) at 0.156 µg/mL,"[1]; read-out: Fold Change, down-regulated gene WHOZ_00873 (outer membrane protein)",3.36
same,fold change in gene expression (up- or down-regulated) at 0.156 µg/mL,"[1]; read-out: Fold Change, down-regulated gene WHOZ_00996 (Na(+)-translocating NADH-quinone reductase subunit D)",3.25
same,fold change in gene expression (up- or down-regulated) at 0.156 µg/mL,"[1]; read-out: Fold Change, down-regulated gene WHOZ_00998 (Na(+)-translocating NADH-quinone reductase subunit B)",3.3
same,fold change in gene expression (up- or down-regulated) at 0.156 µg/mL,"[1]; read-out: Fold Change, down-regulated gene WHOZ_01539 (NADH dehydrogenase subunit C)",3.32
same,fold change in gene expression (up- or down-regulated) at 0.156 µg/mL,"[1]; read-out: Fold Change, down-regulated gene WHOZ_01541 (NADH dehydrogenase subunit E)",3.77
same,fold change in gene expression (up- or down-regulated) at 0.156 µg/mL,"[1]; read-out: Fold Change, down-regulated gene WHOZ_01542 (NADH-quinone oxidoreductase, F subunit)",3.57
same,fold change in gene expression (up- or down-regulated) at 0.156 µg/mL,"[1]; read-out: Fold Change, down-regulated gene WHOZ_01545 (NADH-quinone oxidoreductase subunit H)",3.58
same,fold change in gene expression (up- or down-regulated) at 0.156 µg/mL,"[1]; read-out: Fold Change, down-regulated gene WHOZ_01546 (NADH dehydrogenase subunit I)",4.11
same,fold change in gene expression (up- or down-regulated) at 0.156 µg/mL,"[1]; read-out: Fold Change, down-regulated gene WHOZ_01547 (NADH dehydrogenase subunit J)",3.8
same,fold change in gene expression (up- or down-regulated) at 0.156 µg/mL,"[1]; read-out: Fold Change, down-regulated gene WHOZ_01548 (NADH dehydrogenase subunit K)",4
same,fold change in gene expression (up- or down-regulated) at 0.156 µg/mL,"[1]; read-out: Fold Change, down-regulated gene WHOZ_01549 (NADH:ubiquinone dehydrogenase, L subunit)",3.95
same,fold change in gene expression (up- or down-regulated) at 0.156 µg/mL,"[1]; read-out: Fold Change, down-regulated gene WHOZ_01550 (Predicted HKD family nuclease)",3.73
same,fold change in gene expression (up- or down-regulated) at 0.156 µg/mL,"[1]; read-out: Fold Change, down-regulated gene WHOZ_01551 (NADH dehydrogenase subunit M)",3.68
same,fold change in gene expression (up- or down-regulated) at 0.156 µg/mL,"[1]; read-out: Fold Change, down-regulated gene WHOZ_01552 (NADH dehydrogenase subunit N)",3.41
same,fold change in gene expression (up- or down-regulated) at 0.156 µg/mL,"[1]; read-out: Fold Change, down-regulated gene bfr (bacterioferritin), first entry",8.2
same,fold change in gene expression (up- or down-regulated) at 0.156 µg/mL,"[1]; read-out: Fold Change, down-regulated gene bfr (bacterioferritin), second entry",7.73
same,fold change in gene expression (up- or down-regulated) at 0.156 µg/mL,"[1]; read-out: Fold Change, down-regulated gene cysK (Cysteine synthetase)",3.38
same,fold change in gene expression (up- or down-regulated) at 0.156 µg/mL,"[1]; read-out: Fold Change, down-regulated gene nqrE",3.48
same,fold change in gene expression (up- or down-regulated) at 0.156 µg/mL,"[1]; read-out: Fold Change, down-regulated gene nqrF",3.47
same,fold induction at 0.156 µg/mL,"[1]; read-out: Fold Change, up-regulated gene WHOZ_00302 (MpeR)",20.2
same,fold induction at 0.156 µg/mL,"[1]; read-out: Fold Change, up-regulated gene WHOZ_00403 (putative lipoprotein)",19.1
same,fold induction at 0.156 µg/mL,"[1]; read-out: Fold Change, up-regulated gene WHOZ_00412 (putative ferredoxin)",4.43
same,fold induction at 0.156 µg/mL,"[1]; read-out: Fold Change, up-regulated gene WHOZ_00413 (Thioredoxin)",7.01
same,fold induction at 0.156 µg/mL,"[1]; read-out: Fold Change, up-regulated gene WHOZ_00880 (integral membrane protein)",3.91
same,fold induction at 0.156 µg/mL,"[1]; read-out: Fold Change, up-regulated gene WHOZ_01151 (TonB-dependent receptor plug domain-containing protein)",4.75
same,fold induction at 0.156 µg/mL,"[1]; read-out: Fold Change, up-regulated gene WHOZ_01152 (hemoglobin receptor)",5.13
same,fold induction at 0.156 µg/mL,"[1]; read-out: Fold Change, up-regulated gene WHOZ_01153 (hemoglobin receptor)",3.89
same,fold induction at 0.156 µg/mL,"[1]; read-out: Fold Change, up-regulated gene WHOZ_01683 (fetA)",4.53
same,fold induction at 0.156 µg/mL,"[1]; read-out: Fold Change, up-regulated gene WHOZ_01837 (outer membrane protein)",3.91
same,fold induction at 0.156 µg/mL,"[1]; read-out: Fold Change, up-regulated gene WHOZ_01985 (hypothetical periplasmic protein)",5.49
same,fold induction at 0.156 µg/mL,"[1]; read-out: Fold Change, up-regulated gene WHOZ_02005 (transferrin-binding protein-like)",10.1
same,fold induction at 0.156 µg/mL,"[1]; read-out: Fold Change, up-regulated gene WHOZ_02042 (TonB)",11.9
same,fold induction at 0.156 µg/mL,"[1]; read-out: Fold Change, up-regulated gene WHOZ_02043 (ExbB)",10.5
same,fold induction at 0.156 µg/mL,"[1]; read-out: Fold Change, up-regulated gene WHOZ_02044 (ExbD protein)",12.5
same,fold induction at 0.156 µg/mL,"[1]; read-out: Fold Change, up-regulated gene WP_003690577.1 (hypothetical protein)",4.61
same,fold induction at 0.156 µg/mL,"[1]; read-out: Fold Change, up-regulated gene WP_003690710.1 (hypothetical protein)",8.64
same,fold induction at 0.156 µg/mL,"[1]; read-out: Fold Change, up-regulated gene fumC (Fumarase C)",12.2
same,fold induction at 0.156 µg/mL,"[1]; sub-MIC PBT2 0.156 mg/L, read-out: up-regulation of mpeR",20
same,fold induction at 0.156 µg/mL,"[1]; sub-MIC PBT2 0.156 mg/L, read-out: up-regulation of seven genes",> 10
same,LogFC,[1]; down-regulated gene WHOZ_00293 (Periplasmic protein),1.83
same,LogFC,[1]; down-regulated gene WHOZ_00873 (outer membrane protein),1.75
same,LogFC,[1]; down-regulated gene WHOZ_00996 (Na(+)-translocating NADH-quinone reductase subunit D),1.70
same,LogFC,[1]; down-regulated gene WHOZ_00998 (Na(+)-translocating NADH-quinone reductase subunit B),1.72
same,LogFC,[1]; down-regulated gene WHOZ_01539 (NADH dehydrogenase subunit C),1.73
same,LogFC,[1]; down-regulated gene WHOZ_01541 (NADH dehydrogenase subunit E),1.92
same,LogFC,"[1]; down-regulated gene WHOZ_01542 (NADH-quinone oxidoreductase, F subunit)",1.83
same,LogFC,[1]; down-regulated gene WHOZ_01545 (NADH-quinone oxidoreductase subunit H),1.84
same,LogFC,[1]; down-regulated gene WHOZ_01546 (NADH dehydrogenase subunit I),2.04
same,LogFC,[1]; down-regulated gene WHOZ_01547 (NADH dehydrogenase subunit J),1.93
same,LogFC,[1]; down-regulated gene WHOZ_01548 (NADH dehydrogenase subunit K),2.00
same,LogFC,"[1]; down-regulated gene WHOZ_01549 (NADH:ubiquinone dehydrogenase, L subunit)",1.98
same,LogFC,[1]; down-regulated gene WHOZ_01550 (Predicted HKD family nuclease),1.90
same,LogFC,[1]; down-regulated gene WHOZ_01551 (NADH dehydrogenase subunit M),1.88
same,LogFC,[1]; down-regulated gene WHOZ_01552 (NADH dehydrogenase subunit N),1.77
same,LogFC,"[1]; down-regulated gene bfr (bacterioferritin), first entry",3.03
same,LogFC,"[1]; down-regulated gene bfr (bacterioferritin), second entry",2.95
same,LogFC,[1]; down-regulated gene cysK (Cysteine synthetase),1.76
same,LogFC,[1]; down-regulated gene nqrE,1.80
same,LogFC,[1]; down-regulated gene nqrF,1.80
same,regulation of genes encoding NADH-associated proteins,"[1]; sub-MIC PBT2 0.156 mg/L, FIG. 3",down-regulated
same,number of down-regulated genes,[1]; [8],96 genes
same,number of up-regulated genes,[1]; [8],62 genes
same,LogFC,[1]; up-regulated gene WHOZ_00302 (MpeR),4.33
same,Fold Change,[1]; [9],5.44 fold
same,LogFC,[1]; [9],2.44
same,Fold Change,[1]; [10],3.74 fold
same,LogFC,[1]; [10],1.90
same,LogFC,[1]; up-regulated gene WHOZ_00403 (putative lipoprotein),4.26
same,LogFC,[1]; up-regulated gene WHOZ_00412 (putative ferredoxin),2.15
same,LogFC,[1]; up-regulated gene WHOZ_00413 (Thioredoxin),2.81
same,LogFC,[1]; up-regulated gene WHOZ_00880 (integral membrane protein),1.97
same,LogFC,[1]; up-regulated gene WHOZ_01151 (TonB-dependent receptor plug domain-containing protein),2.25
same,LogFC,[1]; up-regulated gene WHOZ_01152 (hemoglobin receptor),2.36
same,LogFC,[1]; up-regulated gene WHOZ_01153 (hemoglobin receptor),1.96
same,LogFC,[1]; up-regulated gene WHOZ_01683 (fetA),2.18
same,LogFC,[1]; up-regulated gene WHOZ_01837 (outer membrane protein),1.97
same,LogFC,[1]; up-regulated gene WHOZ_01985 (hypothetical periplasmic protein),2.46
same,LogFC,[1]; up-regulated gene WHOZ_02005 (transferrin-binding protein-like),3.33
same,LogFC,[1]; up-regulated gene WHOZ_02042 (TonB),3.58
same,LogFC,[1]; up-regulated gene WHOZ_02043 (ExbB),3.40
same,LogFC,[1]; up-regulated gene WHOZ_02044 (ExbD protein),3.64
same,LogFC,[1]; up-regulated gene WP_003690577.1 (hypothetical protein),2.20
same,LogFC,[1]; up-regulated gene WP_003690710.1 (hypothetical protein),3.11
same,LogFC,[1]; up-regulated gene fumC (Fumarase C),3.61
same,MIC,[2]; agar,0.078 µg/mL
same,MIC,[2]; broth,0.156 µg/mL
same,MIC,[3]; agar,0.039 µg/mL
same,MIC,[3]; broth,0.156 µg/mL
same,MIC,[4],1.25 µg/mL
same,MIC,[5]; agar,0.156 µg/mL
same,MIC,[5]; broth,0.625 µg/mL
same,MIC,[6],1.25 µg/mL
same,antibacterial activity,[7],neither PBT2 nor zinc alone displayed antibacterial activity which would be suitable to treat an infection
